Laboratory results as given in US20100197789A1, “ANTI-OBESITY AGENT AND USE THEREOF” (National University Corporation Nagoya University, priority 2006, published 2010).

Key:
Type in all cases: in vivo, mouse
[1] = system: db/db mice; experiment: Blood glucose level, HbA1c and plasma hormone concentrations after 5-week administration, db/db mice; conditions: 1.1 and 2.7 mg/dl in drinking water
Method: (§1) 5 week-old male C57BL/KsJ-db/db mice (db/db mice: body weight 19 to 25 g, Japan SLC, Inc.) were purchased and individually fed in tip cages. For the db/db mice, normal pellet diet (CE-2) was administered under free water intake and free food intake. A body weight and a food intake amount over 24 hours were measured every day from the start of feeding. On day 3 after the start of feeding, blood was taken from an orbit after 6 hour-fasting and a blood glucose level and a blood insulin concentration were measured. The db/db mice were divided into three groups (10 mice per each group) so that a body weight, a 24 hour-food intake amount, a blood glucose level, and a blood insulin concentration were equal, and defined to be a control group, a low concentration baclofen treated group, and a high concentration baclofen treated group. After division into the groups, from day 5 after the start of feeding, (±)-baclofen was dissolved in drinking water and 5 week-continuous oral administration to the baclofen treated groups was started. (±)-baclofen was dissolved in drinking water at a concentration of 1.1 mg/dl in the low concentration treated group and at a concentration of 2.7 mg/dl in the high concentration treated group. A food intake amount and a body weight were measured over time during the period of 5 week-administration of (±)-baclofen, blood was taken after the end of the 5-week administration, and the db/db mice were sacrificed by cervical luxation. Brains, epididymal white adipose tissues, subcutaneous white adipose tissues and brown adipose tissues were surgically removed. The brains and brown adipose tissues were frozen in dry ice and liquid nitrogen immediately after the removal and then preserved at −80° C. The epididymal white adipose tissues and subcutaneous white adipose tissues were measured in weights, and then fixed in 4% formaldehyde and preserved at 4° C.
The blood glucose level was measured by a glucose analyzer Antisense (HORIBA, Ltd.) promptly after taking blood from an orbit. HbA1c was measured by a glycohemoglobin analyzer HLC-723 GHbV (manufactured by TOSOH Corporation) after preserving blood at −80° C.
After taking blood from an orbit by using a hematocrit tube coated with heparin, blood was centrifuged at 3500 rpm at 4° C. for 15 minutes, and plasma was preserved at −80° C. The plasma concentrations of insulin, leptin and adiponectin were measured by the ELISA method (levis insulin kit (mouse): Shibayagi Co., Ltd., Morinaga Leptin assay kit: Morinaga Institute of Biological Science, Inc., Mouse/rat adiponectin ELISA kit: OTSUKA Pharmaceutical Co., Ltd.).

[2] = system: db/db mice; experiment: Food intake amount and body weight, 5 week-continuous oral administration in drinking water, db/db mice; conditions: for body weight increase / food intake amount: oral, 5 weeks
Method: as §1
5 week-old male C57BL/KsJ-db/db mice (db/db mice: body weight 19 to 25 g, Japan SLC, Inc.) were purchased and individually fed in tip cages. For the db/db mice, normal pellet diet (CE-2) was administered under free water intake and free food intake. A body weight and a food intake amount over 24 hours were measured everyday from the start of feeding. On day 3 after the start of feeding, blood was taken from an orbit after 6 hour-fasting and a blood glucose level and a blood insulin concentration were measured. […] After division into the groups, from day 5 after the start of feeding, R-baclofen and S-baclofen were dissolved in drinking water and 5 week-continuous oral administration was started. […] A food intake amount and a body weight were measured over time, and a rectal temperature was measured 5 weeks after the start of the administration. Blood was taken after the 5-week administration of baclofen, and the db/db mice were sacrificed by cervical luxation.
5 week-old male C57BL/KsJ-db/db mice (db/db mice: body weight 19 to 25 g, Japan SLC, Inc.) were purchased and individually fed in tip cages. Normal pellet diet (CE-2) was administered to the db/db mice under free water intake and free food intake. A body weight and a food intake amount over 24 hours were measured every day from the start of feeding. On day 3 after the start of feeding, blood was taken from an orbit after 6 hour-fasting, and a blood glucose level and a blood insulin concentration were measured. The db/db mice were divided into five groups (10 mice per each group) so that a body weight, a 24 hour-food intake amount, a blood glucose level, and a blood insulin concentration were equal, and defined to be a control group and baclofen treated groups. (±)-baclofen was dissolved in drinking water at respective concentrations of 4×10^−6 M, 10×10^−6 M, 40×10^−6 M, and 100×10^−6 M, and continuously orally administered to the baclofen treated groups for 5 weeks. A food intake amount, a body weight and a water-drinking amount were measured over time during the period of 5 week-administration of (±)-baclofen. […]

[3] = system: POMC mRNA; experiment: In situ hybridization, POMC mRNA in hypothalamic arcuate nucleus, db/db mice; conditions: after 5 weeks, 1.1 and 2.7 mg/dl in drinking water, NIH image quantitation
Method: as §1, with “After division into the groups, from day 5 after the start of feeding, (±)-baclofen was dissolved in drinking water and 5 week-continuous oral administration to the baclofen treated groups was started. (±)-baclofen was dissolved in drinking water at a concentration of 1.1 mg/dl in the low concentration treated group and at a concentration of 2.7 mg/dl in the high concentration treated group.” left out, “Brains, epididymal white adipose tissues, subcutaneous white adipose tissues and brown adipose tissues were surgically removed. The brains and brown adipose tissues were frozen in dry ice and liquid nitrogen immediately after the removal and then preserved at −80° C.” left out, “C. […]” for “C.”

[4] = system: db/db mice; experiment: Histological study of adipose tissue (weights, fat cell size), db/db mice; conditions: after 5 week-administration, 1.1 and 2.7 mg/dl in drinking water
Method: as §1, with “4° C. […]” for “4° C.”

[5] = (±)-baclofen 1.1 mg/dl (low) and 2.7 mg/dl (high) in drinking water, vs control
[6] = (±)-baclofen 1.1 and 2.7 mg/dl in drinking water, continued until end of experiment
[7] = (±)-baclofen 4×10^−6 M in drinking water (roughly 0.2 mg/kg/day)
[8] = (±)-baclofen 10×10^−6 M in drinking water (roughly 0.5 mg/kg/day)
[9] = (±)-baclofen 40×10^−6 M in drinking water (roughly 2 mg/kg/day)
[10] = (±)-baclofen 100×10^−6 M in drinking water (roughly 5 mg/kg/day)

`NCC(CC(=O)O)c1ccc(Cl)cc1` (racemic) [(±)-baclofen, (RS)-4-amino-3-(4-chlorophenyl)butanoic acid] was tested, and the blood adiponectin concentration ([1]; after 5 week-administration) was “Significant increases”, the blood leptin concentration ([1]; after 5 week-administration) was “Significant increases” and the “fasting blood insulin level” value ([1]; after 5 week-administration) was “No change”. For the same compound, the HbA1c value ([1]; after administration for 5 weeks) was “Significant decreases”, the “fasting blood glucose level” value ([1]; fasting for 6 hours, after 5 week-administration) was “significant suppression” and the body weight increase [2, 5] was “significant body weight increase suppression”. The food intake amount [2, 5] was “significantly suppressed”, the “time after start of administration from which body weight increase suppression was significant” value [2, 6] was 1 week and the “time after start of administration from which food intake suppression was significant” value [2, 6] was 1 week. For the same compound, the “time after start of administration from which body weight increase suppression was significant” value [2, 7] was 4 weeks, the “time after start of administration from which food intake suppression was significant” value [2, 7] was 4 weeks and the body weight increase [2, 7] was “Significant suppression”. For the same compound, the food intake amount [2, 7] was “Significant suppression”, the “time after start of administration from which body weight increase suppression was significant” value [2, 8] was 2 weeks and the “time after start of administration from which food intake suppression was significant” value [2, 8] was 2 weeks. The body weight increase [2, 8] was “Significant suppression”, the food intake amount [2, 8] was “Significant suppression” and the “time after start of administration from which body weight increase suppression was significant” value [2, 9] was 1 week. For the same compound, the “time after start of administration from which food intake suppression was significant” value [2, 9] was 1 week, the body weight increase [2, 9] was “significantly suppressed” and the food intake amount [2, 9] was “significantly suppressed”. The “time after start of administration from which body weight increase suppression was significant” value [2, 10] was 1 week, the “time after start of administration from which food intake suppression was significant” value [2, 10] was 1 week and the body weight increase [2, 10] was “significantly suppressed”. The food intake amount [2, 10] was “significantly suppressed”, the “expression of POMC mRNA in the hypothalamic arcuate nucleus” value [3] was “significantly enhanced” and the “size of a fat cell (epididymal white adipose tissue, H-E stain)” value [4] was “decreases”. The “weight of epididymal white adipose tissues” value [4] was “Significant decreases” and the “weight of subcutaneous white adipose tissue” value [4] was “no significant decrease”.
